Measurements published in patent publication EP0533933A1, “BISHETEROCYCLIC COMPOUND” (YAMANOUCHI PHARMACEUTICAL CO. LTD., priority 1990, dated 1992).

Experiments:
KK mice = assay: Hypoglycemic activity (blood glucose decrease in KK mice, glucose oxidase method); assay type: in vivo; conditions: percent decrease of blood glucose from the level prior to administration; dosage level of 100 mg; per os daily for 4 consecutive days, blood glucose on day 5; male KK mice on high caloric diet
Description: Male KK mice, 4-5 weeks old, were obtained from Japan Clea. The animals were individually put on a high caloric diet (CMF, Oriental Yeast) and the individuals weighing about 40 g were selectively used.
For determination of blood glucose, 10 µl of blood was withdrawn from the caudal vein, deproteinized with 100 µl of 0.33 N perchloric acid and centrifuged. The glucose in the supernatant was assayed by the glucose oxidase method. Groups of 6 animals showing 200 mg/dℓ or more of blood glucose were submitted to the experiment.
The test compound was suspended in 0.5% methylcellulose and administered daily per os for 4 consecutive days. Before administration and on day 5, the blood was withdrawn from the caudal vein of each animal and the blood glucose was determined by the above method.
Hypoglycemic potency was expressed in terms of percent decrease from the glucose level prior to administration of the test compound and the results were statistically evaluated at the significance level of p=0.05. * = p<0.05 ** = p<0.01 *** = p<0.001 As a result, a significant hypoglycemic effect was attained within the dose range of 10 to 300 mg/kg.

Fischer rats = assay: Oral toxicity in Fischer rats, 3 consecutive days; assay type: in vivo; conditions: Fischer rats (2 animals per sex), orally, 1,000 mg/kg for 3 consecutive days

Row | SMILES | % Inhibition (KK mice) | abnormality after oral administration (Fischer rats)
1 | O=C1NC(=O)C(Cc2ccc(OCCCCCCCOc3ccc(CC4SC(=O)NC4=O)cc3)cc2)S1 (stereo not shown) [Example 14, 1,7-bis[4-[(2,4-dioxo-5-thiazolidinyl)methyl]phenoxy]heptane] | 37% | –
2 | O=C1NC(=O)C(Cc2ccc(Cc3ccc(CC4SC(=O)NC4=O)cc3)cc2)S1 (stereo not shown) [Example 15, 4,4'-bis[(2,4-dioxo-5-thiazolidinyl)methyl]diphenylmethane] | 47% | no abnormality was observed
3 | O=C1NC(=O)C(Cc2ccc(OC/C=C/COc3ccc(CC4SC(=O)NC4=O)cc3)cc2)S1 (stereo not drawn) [Example 16, trans-1,4-bis[p-[(2,4-dioxo-5-thiazolidinyl)methyl]phenoxy]-2-butene] | 51% | –
